Like-named read-outs stand apart in the source and are kept apart here.
Columns and labels:
[1] = Cytotoxicity on normal human peripheral blood mononuclear cells (trypan blue dye exclusion); assay type: cell-based; details: human, peripheral blood mononuclear cells, overnight, 37° C., read-out: % cell kill (mean ± S.E.M.)
Method: (§1) Preactivated MC 540 is abbreviated as pMC 540.
(§2) Merocil and Merodantoin were dissolved in cremophor EL whereas pMC 540 was prepared in 10% aqueous ethanol. […] Fresh human peripheral mononucleas cells (1×10^6 cells/ml) were treated with indicated concentration of compounds. After overnight incubation at 37° C., cell viability was determined by trypan blue dye exclusion method.

[2] = system: normal human peripheral blood mononuclear cells; test: as above; assay type: cell-based; details: doses of Table 1
Method: as §1, §2

[3] = system: human Burkitt lymphoma Daudi cells; test: Cytotoxic effects on human Burkitt lymphoma Daudi cells (MTT assay); assay type: cell-based
Method: Human Burkitt Lymphoma Daudi cells (1×10^6 cells/ml) were treated with different concentrations of Merodantoin. After overnight incubation at 37° C., the tumor cells kill was determined by MTT assay.
Human Burkitt Lymphoma Daudi cells (1×10^6 cells/ml) were treated with different concentrations of Merocil. After overnight incubation at 37° C., the tumor cells kill was determined by MTT assay.
(§3) Each cell type (1×10^6 cells/ml; in triplicate) was treated with indicated concentrations of Merocil or Merodantoin. After overnight (20 hr.) or 5 day incubation periods, the cell viability was determined by MTT assay and calculated as a percentage of untreated controls.

[4] = system: C-33A (carcinoma cervix, human); test: Inhibition of cell proliferation, C-33A (MTT assay); assay type: cell-based; details: for inhibition at 1.56 µg/mL: 1.56 μg/ml; for inhibition at 1.56 µg/mL / inhibition at 3.13 µg/mL / inhibition at 6.25 µg/mL / inhibition at 12.5 µg/mL: read-out: % inhibition of cell proliferation; for inhibition at 3.13 µg/mL: 3.13 μg/ml; for inhibition at 6.25 µg/mL: 6.25 μg/ml; for inhibition at 12.5 µg/mL: 12.5 μg/ml; for inhibition at 25 µg/mL: 25.0 μg/ml
Method: (§4) Preactivated MC 540 is abbreviated as pMC 540. […] 52: 831-38 (1990); and T. Mosmann, J. Immulog. Methods 65: 55-63 (1983).
as §3, with “merocil” for “Merocil”, “merodantoin.” for “Merodantoin.”, “controls. The toxicity in vehicle only (cremophor EL) controls was not detectable at highest dose tested.” for “controls.”

[5] = system: MS 751 (cervix, carcinoma, human); test: Inhibition of cell proliferation, MS 751 (MTT assay); assay type: cell-based; details: for inhibition at 1.56 µg/mL / inhibition at 3.13 µg/mL / inhibition at 6.25 µg/mL / inhibition at 12.5 µg/mL: read-out: % inhibition of cell proliferation
Method: as §4
as §3, with “merocil” for “Merocil”, “merodantoin.” for “Merodantoin.”, “controls. The toxicity in vehicle only (cremophor EL) controls was not detectable at highest dose tested.” for “controls.”

[6] = system: JEG-3 (choriocarcinoma, human); test: Inhibition of cell proliferation, JEG-3 (MTT assay); assay type: cell-based; details: for inhibition at 1.56 µg/mL / inhibition at 3.13 µg/mL / inhibition at 6.25 µg/mL / inhibition at 12.5 µg/mL: read-out: % inhibition of cell proliferation
Method: as §4
as §3, with “merocil” for “Merocil”, “merodantoin.” for “Merodantoin.”, “controls. The toxicity in vehicle only (cremophor EL) controls was not detectable at highest dose tested.” for “controls.”

[7] = system: BT-20 (breast, adenocarcinoma); test: Inhibition of cell proliferation, BT-20 (MTT assay); assay type: cell-based; details: Homo sapiens; for inhibition at 1.56 µg/mL: 1.56 μg/ml; for inhibition at 1.56 µg/mL / inhibition at 3.13 µg/mL / inhibition at 6.25 µg/mL / inhibition at 12.5 µg/mL: read-out: % inhibition of cell proliferation; for inhibition at 3.13 µg/mL: 3.13 μg/ml; for inhibition at 6.25 µg/mL: 6.25 μg/ml; for inhibition at 12.5 µg/mL: 12.5 μg/ml; for inhibition at 25 µg/mL: 25.0 μg/ml
From the text: Preactivated MC 540 is abbreviated as pMC 540. […] 52: 831-38 (1990); and T. Mosmann, J. Immulog. Methods 65: 55-63 (1983). […]

[8] = system: H.S. Sultan (multiple myeloma); test: Inhibition of cell proliferation, H.S. Sultan (MTT assay); assay type: cell-based; details: 24 hr.
Method: as §4
(§5) Each cell type (1×10^6 cells/ml; in triplicate) was treated with indicated concentrations of merocil or merodantoin. […] The cytotoxicity in vehicle only (cremophor EL) controls was not detectable at highest dose tested.

[9] = system: 8226 (multiple myeloma); test: Inhibition of cell proliferation, 8226 (MTT assay); assay type: cell-based; details: 24 hr.
Method: as §4, §5

[10] = system: U266B1 (myeloma); test: Inhibition of cell proliferation, U266B1 (MTT assay); assay type: cell-based; details: 24 hr.
Method: as §4, §5

[11] = system: MT-4 cells; test: Effect on viability of MT-4 cells; assay type: cell-based; details: experimental conditions of Table 8
Method: Cell free human immunodeficiency virus (HIV-1) was either left untreated or treated with indicated doses of Merocil or Merodantoin for one hour at 37° C. and added to MT-4 target cells. After 4 hour incubation at 37° C., the cells were washed three times and further incubated in drug free fresh growth medium (complete RPMI-1640) at 37° C. for 4 days. On day four, 50% of the culture supernatant was replaced with fresh growth medium to prevent cell death due to possible nutrient depletion. The viability of the cell was determined on day 11 by MTT assay. […] The viability of the MT-4 cells was not affected by Merocil or Merodantoin under the experimental conditions described above.

[12] = system: certain tumor cells; test: Inhibition of proliferation of tumor cells (overall conclusion); assay type: cell-based
From the text: as §4

[13] = system: L1210 mouse leukemia cells; test: Combined effect on L1210 mouse leukemia cells (MTT assay); details: MC = 12.5 μg/ml; MD = 25 μg/ml; MZ = 25 μg/ml; overnight
Method: The biological activities of the photooxidation products of MC 540 were determined. Preactivated MC 540 is abbreviated as pMC 540. Assays of antitumor activities of the products were carried out according to published standard methods.
Mouse leukemia L1210 cells (1 × 10^6 cells/ml) were treated wit
different combinations of the indicated compounds (isolated from
preactivated merocyanine 540). After overnight incubation the cell kill

[14] = 1.56 μg/ml, read-out: % inhibition of cell proliferation
[15] = 3.13 μg/ml, read-out: % inhibition of cell proliferation
[16] = 6.25 μg/ml, read-out: % inhibition of cell proliferation
[17] = 12.5 μg/ml, read-out: % inhibition of cell proliferation

## CCCCN1C(=O)C(=O)N(CCCC)C1=S [Merodantoin, N,N'-Dibutyl-2-thio-4,5-imidazolindion]
[1]; 1.56 μg/ml
  cytotoxicity: 4.33 ± 1.07%
[1]; 3.13 μg/ml
  cytotoxicity: 3.67 ± 0.51%
[1]; 6.25 μg/ml
  cytotoxicity: 5.33 ± 0.84%
[1]; 12.5 μg/ml
  cytotoxicity: 11.3 ± 1.83%
[1]; 25.0 μg/ml
  cytotoxicity: 25.7 ± 0.51%
[2]
  toxicity to normal human peripheral blood mononuclear cells: relatively non-toxic
[3]; 25 μg/ml
  growth inhibition of cultured Daudi lymphoma cells: virtually complete growth inhibition
[3]; Homo sapiens, Daudi, 1.56 μg/ml, overnight, 37° C., read-out: % Cell Kill (means ± S.D.)
  cytotoxicity at 1.56 µg/mL: 2.75 ± 3.2%
[3]; Homo sapiens, Daudi, 3.13 μg/ml, overnight, 37° C., read-out: % Cell Kill (means ± S.D.)
  cytotoxicity at 3.13 µg/mL: 6.25 ± 2.99%
[3]; Homo sapiens, Daudi, 6.25 μg/ml, overnight, 37° C., read-out: % Cell Kill (means ± S.D.)
  cytotoxicity at 6.25 µg/mL: 9.75 ± 1.71%
[3]; Homo sapiens, Daudi, 12.50 μg/ml, overnight, 37° C., read-out: % Cell Kill (means ± S.D.)
  cytotoxicity at 12.5 µg/mL: 42 ± 8.68%
[3]; Homo sapiens, Daudi, 25.00 μg/ml, overnight, 37° C., read-out: % Cell Kill (means ± S.D.)
  cytotoxicity at 25 µg/mL: 100%
[4]; 20 hr.
  inhibition at 1.56 µg/mL: 16%
  inhibition at 3.13 µg/mL: 29%
  inhibition at 6.25 µg/mL: 36%
  inhibition at 12.5 µg/mL: 49%
  inhibition at 25 µg/mL: 56%
[4]; 120 h, 5 days
  inhibition at 1.56 µg/mL: 11%
  inhibition at 3.13 µg/mL: 34%
  inhibition at 6.25 µg/mL: 86%
  inhibition at 12.5 µg/mL: 63%
  inhibition at 25 µg/mL: 91%
[5]; MS751, 1.56 μg/ml, 20 hr.
  inhibition at 1.56 µg/mL: 8%
[5]; MS751, 3.13 μg/ml, 20 hr.
  inhibition at 3.13 µg/mL: 24%
[5]; MS751, 6.25 μg/ml, 20 hr.
  inhibition at 6.25 µg/mL: 20%
[5]; MS751, 12.5 μg/ml, 20 hr.
  inhibition at 12.5 µg/mL: 28%
[5]; MS751, 25.0 μg/ml, 20 hr.
  inhibition at 25 µg/mL: 41%
[5]; MS751, 120 h, 1.56 μg/ml, 5 days
  inhibition at 1.56 µg/mL: 11%
[5]; MS751, 120 h, 3.13 μg/ml, 5 days
  inhibition at 3.13 µg/mL: 23%
[5]; MS751, 120 h, 6.25 μg/ml, 5 days
  inhibition at 6.25 µg/mL: 66%
[5]; MS751, 120 h, 12.5 μg/ml, 5 days
  inhibition at 12.5 µg/mL: 90%
[5]; MS751, 120 h, 25.0 μg/ml, 5 days
  inhibition at 25 µg/mL: 100%
[6]; JEG-3, 1.56 μg/ml, 20 hr.
  inhibition at 1.56 µg/mL: 15%
[6]; JEG-3, 3.13 μg/ml, 20 hr.
  inhibition at 3.13 µg/mL: 53%
[6]; JEG-3, 6.25 μg/ml, 20 hr.
  inhibition at 6.25 µg/mL: 88%
[6]; JEG-3, 12.5 μg/ml, 20 hr.
  inhibition at 12.5 µg/mL: 100%
[6]; JEG-3, 25.0 μg/ml, 20 hr.
  inhibition at 25 µg/mL: 100%
[6]; JEG-3, 120 h, 1.56 μg/ml, 5 days
  inhibition at 1.56 µg/mL: 18%
[6]; JEG-3, 120 h, 3.13 μg/ml, 5 days
  inhibition at 3.13 µg/mL: 38%
[6]; JEG-3, 120 h, 6.25 μg/ml, 5 days
  inhibition at 6.25 µg/mL: 91%
[6]; JEG-3, 120 h, 12.5 μg/ml, 5 days
  inhibition at 12.5 µg/mL: 100%
[6]; JEG-3, 120 h, 25.0 μg/ml, 5 days
  inhibition at 25 µg/mL: 100%
[7]; BT-20, 96 h, 4 days
  inhibition at 1.56 µg/mL: 19%
  inhibition at 3.13 µg/mL: 52%
  inhibition at 6.25 µg/mL: 20%
  inhibition at 12.5 µg/mL: 12%
  inhibition at 25 µg/mL: 73%
[7]; BT-20, 48 hr.
  inhibition at 1.56 µg/mL: 0%
  inhibition at 3.13 µg/mL: 0%
  inhibition at 6.25 µg/mL: 0%
  inhibition at 12.5 µg/mL: 8%
  inhibition at 25 µg/mL: 26%
[8]; [14]
  inhibition at 1.56 µg/mL: 18%
[8]; [15]
  inhibition at 3.13 µg/mL: 34%
[8]; [16]
  inhibition at 6.25 µg/mL: 54%
[8]; [17]
  inhibition at 12.5 µg/mL: 77%
[8]; 25.0 μg/ml
  inhibition at 25 µg/mL: 87%
[9]; [14]
  inhibition at 1.56 µg/mL: 20%
[9]; [15]
  inhibition at 3.13 µg/mL: 16%
[9]; [16]
  inhibition at 6.25 µg/mL: 20%
[9]; [17]
  inhibition at 12.5 µg/mL: 30%
[9]; 25.0 μg/ml
  inhibition at 25 µg/mL: 46%
[10]; [14]
  inhibition at 1.56 µg/mL: 8%
[10]; [15]
  inhibition at 3.13 µg/mL: 10%
[10]; [16]
  inhibition at 6.25 µg/mL: 10%
[10]; [17]
  inhibition at 12.5 µg/mL: 12%
[10]; 25.0 μg/ml
  inhibition at 25 µg/mL: 12%
[11]
  viability of the MT-4 cells: not affected
[12]
  inhibiting the proliferation of certain tumor cells: effective
[13]
  % Cell Kill: 64%

Reference: patent US5312919A, “Photooxidation products and derivatives thereof of merocyanine-540, their preparation and uses” (priority 1992, dated 1994)
